Experimental data as given in patent US11592438B2, “Device and method for force phenotyping of cells for high-throughput screening and analysis” (THE REGENTS OF THE UNIVERSITY OF CALIFORNIA, priority 2014, dated 2023).
No end group written: not given here.

What was measured:
[1] = tested on: primary human airway smooth muscle cells; assay: Pattern contraction / force generation screening of airway smooth muscle cells in 96 well plate; type: cell-based; conditions: for contraction of ASM cells (pattern deflection): ASM cells exposed to the compound
Excerpt: The image processing software 36 identifies all instances of a given molecular pattern 16 in an image stack and determines how many cells (e.g., 0, 1, or 2+) are adhered to each pattern 16 based on images of those cells 11 with stained nuclei. A MATLAB script opens the image files and pairs the stained nuclei images (e.g., DAPI images) with the fluorescent images of the patterns 16 (e.g., FITC images). The image processing software 36 calculates characteristic pixel length(s) of a given pattern 16 for the cases of no cells adhered and one (1) cell adhered. The ‘FITC’ images may be linearly scaled up with, for example, the MATLAB function ‘imresize’ to improve resolution of these measurements. For those patterns with zero cells adhered thereto, the center of each pattern 16 may be determined using binary center-of-mass calculations. For those patterns 16 with one (1) cell adhered thereto, a series of binary dilation and erosion operations, followed by a binary center-of-mass calculation on patterns is performed. The erosion/dilation procedure is used to remove the potential asymmetry in the pattern 16 arising from cell-induced deformations that would otherwise impact the location of the center of mass. Patterns 16 with two or more nuclei are not analyzed. For each processed pattern 16 (those that are crosses or “X” shaped), the diagonal distance in pixels is measured between the calculated center and the bright edge of the pattern 16 in each direction as illustrated in FIG. 10. […] These measurements are stored, converted to microns based on the magnification used (typically 10×). These lengths are normalized to the median of those measured in patterns 16 with no cells (nominally 0 pixel deformations which is used as a control) and a relative distribution plot for patterns with one (1) cell is generated (see FIG. 8). Cropped images of each pattern 16 screened by the image processing software 36 in a given location and the images of the corresponding cell nuclei on those patterns 16 are saved and may be reviewed if an execution error is suspected. FIG. 8 illustrates examples of cropped DAPI and FITC images.
FIGS. 6A and 6B illustrate another embodiment of the invention. In this embodiment, a substrate 40 such as a plate having apertures 42 formed therein (non-tapered) is adhered to the layer 12 such that individual wells 44 are formed over the surface of the layer 12 with each well 44 containing a plurality of fluorescent patterns 16. […]
These patterns 16 are then used as the controls. For example, similarly shaped patterns with no cells 11 thereon may have their respective dimensions measured and a baseline established that is representative of no deflection in the pattern 16. […]

[2] = tested on: HeLa cells; assay: Dose-response force phenotyping of HeLa cells in well-based embodiment; type: cell-based, human; conditions: increased concentration, FIG. 12A
Excerpt: The image processing software 36 identifies all instances of a given molecular pattern 16 in an image stack and determines how many cells (e.g., 0, 1, or 2+) are adhered to each pattern 16 based on images of those cells 11 with stained nuclei. A MATLAB script opens the image files and pairs the stained nuclei images (e.g., DAPI images) with the fluorescent images of the patterns 16 (e.g., FITC images). The image processing software 36 calculates characteristic pixel length(s) of a given pattern 16 for the cases of no cells adhered and one (1) cell adhered. The ‘FITC’ images may be linearly scaled up with, for example, the MATLAB function ‘imresize’ to improve resolution of these measurements. For those patterns with zero cells adhered thereto, the center of each pattern 16 may be determined using binary center-of-mass calculations. […] Patterns 16 with two or more nuclei are not analyzed. For each processed pattern 16 (those that are crosses or “X” shaped), the diagonal distance in pixels is measured between the calculated center and the bright edge of the pattern 16 in each direction as illustrated in FIG. 10. […] These lengths are normalized to the median of those measured in patterns 16 with no cells (nominally 0 pixel deformations which is used as a control) and a relative distribution plot for patterns with one (1) cell is generated (see FIG. 8). […]

Compound: O=S(=O)(c1cccc2c(I)cccc12)N1CCCNCC1 [ML-7]
- relaxation of smooth muscle contraction (reduction in deflection amount) ([1]; added after contraction by acetylcholine, enodthelin-1 or histamine, FIG. 11A): shown to relax smooth muscle contraction

Compound: CC(C)(C)NCC(O)c1ccc(O)c(CO)c1 (centres unmarked) [albuterol]
- relaxation of ASM cells ([1]; added after contraction in response to histamine, FIG. 11B): relaxation

Compound: Cc1ccc2c(c1)C(=O)C1(O)CCN(c3ccccc3)C1=N2 (centres unmarked) [blebbistatin]
- deflection as function of concentration [2]: less deflection

Compound: NCCc1c[nH]cn1 [histamine]
- contraction of ASM cells (pattern deflection) ([1]; FIG. 11A): contraction

Compound: enodthelin-1 (CSCSSLMDKECVYFCHLDIIW; ends and bridges not checked; cysteine pairing not given here; UniProt P05305 53-73, looked up) [contractile stimulus for ASM cells]
- contraction of ASM cells (pattern deflection) ([1]; FIG. 11A): contraction
